The source of these data is patent US8629157B2, “Pyrrolidine compounds which modulate the CB2 receptor” (Boehringer Ingelheim International GmbH, priority 2009, dated 2014).

Usually EC50 stands for the concentration at which the effect is half-maximal.

Like-named read-outs stand apart in the source and are kept apart here.

This experiment deals with human CB2R (Homo sapiens, UniProt P34972). The experiment is described as follows: CB2R mediated modulation of cAMP synthesis. Type of experiment: cell-based. The method in brief:
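cAMP measured with the DiscoverX-XS kit after 30 min, 37° C. compound exposure of human CB2R-expressing CHO cells stimulated by 10 uM forskolin (1 mM IBMX, 0.25% BSA).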

Chain of human CB2R (P34972 whole entry): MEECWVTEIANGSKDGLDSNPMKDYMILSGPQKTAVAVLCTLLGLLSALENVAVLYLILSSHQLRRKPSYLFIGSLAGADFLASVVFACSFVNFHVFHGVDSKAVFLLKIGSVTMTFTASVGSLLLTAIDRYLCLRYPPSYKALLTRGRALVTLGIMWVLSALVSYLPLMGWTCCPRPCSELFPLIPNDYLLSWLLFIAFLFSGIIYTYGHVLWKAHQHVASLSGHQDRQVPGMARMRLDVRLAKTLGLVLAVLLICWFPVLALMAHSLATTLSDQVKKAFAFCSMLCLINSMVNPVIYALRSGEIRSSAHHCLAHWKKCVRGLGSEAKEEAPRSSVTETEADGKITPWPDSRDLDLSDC

As to `Cc1ccc(N2C(=O)CC[C@H]2C(=O)Nc2cc(C(C)(C)C)on2)cc1Cl` [(S)-l-(3-Chloro-4-methyl-phenyl)-5-oxo-pyrrolidine-2-carboxylic acid (5-tert-butyl-isoxazol-3-yl)-amide], the EC50 (CHO cells expressing human CB2R, inhibition of forskolin-stimulated cAMP synthesis, mean, read-out: CB2 CAMP @ EC50 nM (mean)) stood at 333 nM.

Take `COCC(C)(C)c1cc(NC(=O)[C@@H]2CCC(=O)N2c2ccc(Cl)cc2)on1` [(S)-l-(4-Chloro-phenyl)-5-oxo-pyrrolidine-2-carboxylic acid [3-(2-methoxy-1,1-dimethyl-ethyl)-isoxazol-5-yl]-amide]: the EC50 was found to be 48.7 nM.

Take `COCC(C)(C)c1cc(NC(=O)[C@@H]2CCC(=O)N2c2ccc(Cl)cc2)no1` [(S)-l-(4-Chloro-phenyl)-5-oxo-pyrrolidine-2-carboxylic acid [5-(2-methoxy-1,1-dimethyl-ethyl)-isoxazol-3-yl]-amide]: a half-maximal response (EC50) required 86.1 nM.

In turn, `CCCN1CCC[C@H]1C(=O)Nc1nc(C(C)(C)C)cs1` [Example 187, (S)-1-Propyl-pyrrolidine-2-carboxylic acid (4-tert-butyl-thiazol-2-yl)-amide] registered an EC50 of 159 nM.

As to `CC(C)(C)OC(=O)CN1CCC[C@H]1C(=O)Nc1cc(C(C)(C)C)no1` [[(S)-2-(3-tert-Butyl-isoxazol-5-ylcarbamoyl)-pyrrolidin-1-yl]-acetic acid tert-butyl ester], the half-maximal effective concentration (EC50) turned out to be 0.1 nM.
